Some results are limits rather than exact numbers.

This experiment deals with T1, GPR119 (Homo sapiens, UniProt Q8TDV5).
T1 construct: host or cells: CHO-K1 (CRE-bla reporter, doxycycline-induced)
T1 sequence (Q8TDV5 1-335): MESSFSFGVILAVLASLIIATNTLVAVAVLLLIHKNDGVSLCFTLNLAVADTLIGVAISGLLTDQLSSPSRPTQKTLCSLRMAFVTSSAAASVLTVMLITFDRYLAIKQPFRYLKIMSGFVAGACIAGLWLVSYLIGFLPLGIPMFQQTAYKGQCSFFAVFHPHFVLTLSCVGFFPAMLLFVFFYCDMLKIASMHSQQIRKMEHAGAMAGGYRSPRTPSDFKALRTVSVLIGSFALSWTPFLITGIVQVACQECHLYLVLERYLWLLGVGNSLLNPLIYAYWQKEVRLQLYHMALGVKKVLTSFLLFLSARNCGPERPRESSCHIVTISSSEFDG
Description: Controlling Effect of GPR119 in CRE-bla CHO-K1 Cells (EC50). Type of experiment: cell-based. The note with it: GPR119 CRE-bla CHO-K1 cell line, 5 hr incubation with compound, β-lactamase LiveBLAzer-FRET B/G readout; read-out: controlling effect against GPR119 in CRE-bla CHO-K1 cell line (EC50). The method, then: Controlling Effect of GPR119 in CRE-bla CHO-K1 Cells (EC50)
The day before the experiment, GPR119 CRE-bla CHO-K1 cell line purchased from Invitrogen was seeded in a 96 black well plate in an amount of 80 μl at a density of 5×10^4 cells. After the seeding, 10 μl of doxycycline in a concentration of 1 μg/ml was added to each well and incubated in an incubator at 37° C. under 5% CO2 for about 16 to 20 hr.
The day of experiment, sample compounds were performed a 10-fold serial dilution with a culture medium at various concentrations of 1 uM to […]. Considering that the culture medium used in the seeding and doxycycline are together applied, the sample compounds were diluted to a 5-fold dilution of the planned concentration. 20 μl of the compound diluted with the culture medium was added to each well and incubated in the incubator for 5 hr. The compound-untreated group was added with 20 μl of 0.5% dimethyl sulfoxide (DMSO) diluted with the culture medium. After 5 hr from the incubation, substrate mixture of a 6-fold concentration were prepared; 6 μl of 1 mM LiveBLAzer™-FRET B/G(CCF4-AM) substrate, 60 μl of solution B, 904 μl of solution C and 30 μl of solution D. 12 μl of the substrate mixture was added to each well and allowed to be kept at room temperature for 2 hr with shading the light. Fluorescence intensity value of blue channel and green channel was determined by a fluorescence microplate reader at 409 nm/460 nm and 409 nm/[…] (excitation/emission), respectively. In order to confirm the controlling effect of the inventive compounds against GPR119, EC50 (half maximal effective concentration) was determined based on the determined values. EC50, the concentration at which 50% activity of β-lactamase, was determined according to the following Equation: Equation=[(Ti−Tz)/(C−Tz)]×100
[Wherein, Ti: Cell density of the compound-treated group; Tz: Cell density of the negative control group; and C: Cell density of the positive control group]
For orientation: EC50 means the concentration giving half of the maximal effect. For `CC(C)c1noc(N2CCC(Oc3ncnc4c(-c5ccc(S(=O)(=O)C6CCCC6)cc5)csc34)CC2)n1` [Example 108, 7-(4-cyclopentylsulfonyl-phenyl)-4-[1-(3-isopropyl-[1,2,4]oxadiazol-5-yl)-piperidin-4-yloxy]-thieno[3,2-d]pyrimidine], the EC50 is less than 0.1 µM.
As to `CC(C)c1noc(C2CCN(c3ncnc4c(-c5ccc([N+](=O)[O-])cc5)csc34)CC2)n1` [Example 14, 4-[4-(3-isopropyl-[1,2,4]oxadiazol-5-yl)-piperidin-1-yl]-7-(4-nitro-phenyl)-thieno[3,2-d]pyrimidine], the EC50 was greater than 1 µM.
In the case of `CC(C)(C)C(=O)N1CCC(Oc2ncnc3c(-c4ccc(S(C)(=O)=O)cc4F)csc23)CC1` [Example 88, 1-(4-(7-(2-fluoro-4-methanesulfonyl-phenyl)thieno[3,2-d]pyrimidin-4-yloxy)piperidin-1-yl)-2,2-dimethylpropan-1-one] it was less than 0.1 µM.
Consider `CC(C)c1noc(N2CCC(Oc3ncnc4c(-c5ccc(N)cc5)cn(C)c34)CC2)n1` [Example 41, 4-(4-(1-(3-isopropyl-1,2,4-oxadiazol-5-yl)piperidin-4-yloxy)-5-methyl-5H-pyrrolo[3,2-d]piperidin-7-yl)benzenamine], for which the EC50 is greater than 1 µM.
With `Cn1cc(-c2ccc(S(C)(=O)=O)cc2)c2ncnc(OC3CCN(C(=O)C(C)(C)C)CC3)c21` [Example 46, 1-{4-[7-(4-methanesulfonyl-phenyl)-5-methyl-5H-pyrrolo[3,2-d]pyrimidin-4-yloxy]-piperidin-1-yl}-2,2-dimethynyl-propan-1-one], the EC50 fell in the range of 0.1 to 1 µM.
Under `Cn1cc(-c2ccc(-n3cnnn3)cc2)c2ncnc(OC3CCN(c4ncc(C(F)(F)F)cn4)CC3)c21` [Example 123, 7-(4-(1H-tetrazol-1-yl)phenyl)-5-methyl-4-(1-(5-(trifluoromethyl)pyrimidin-2-yl)piperidin-4-yloxy)-5H-pyrrolo[3,2-d]pyrimidine] stands less than 0.1 µM; under `CC(C)Cc1noc(N2CCC(Oc3ncnc4c(-c5ccc(S(C)(=O)=O)cc5F)csc34)CC2)n1` [Example 78, 7-(2-fluoro-4-methanesulfonyl-phenyl)-4-[1-(3-isobutyl-[1,2,4]oxadiazol-5-yl)piperidin-4-yloxy]thieno[3,2-d]pyrimidine], less than 0.1 µM; under `CC(C)(C)c1noc(N2CCC(Oc3ncnc4c(-c5ccc(S(C)(=O)=O)cc5)csc34)CC2)n1` [Example 53, 3-tert-butyl-5-(4-(7-(4-methanesulfonyl-phenyl)thieno[3,2-d]pyrimidin-4-yloxy)piperidin-1-yl)-1,2,4-oxadiazole], less than 0.1 µM.
On to `Cn1cc(-c2ccc(S(C)(=O)=O)cc2)c2ncnc(OC3CCN(c4ncc(C(F)(F)F)cn4)CC3)c21` [Example 28, 5-methyl-7-(4-methanesulfonyl-phenyl)-4-(1-(5-(trifluoromethyl)pyrimidin-2-yl)piperidin-4-yloxy)-5H-pyrrolo[3,2-d]pyrimidine], for which the EC50 was less than 0.1 µM.
Take `CCCS(=O)(=O)c1ccc(-c2csc3c(OC4CCN(c5nc(C(C)C)no5)CC4)ncnc23)c(F)c1` [Example 107, 7-(2-fluoro-(4-propylsulfonyl)-phenyl)-4-[1-(3-isopropyl-[1,2,4]oxadiazol-5-yl)-piperidin-4-yloxy]-thieno[3,2-d]pyrimidine]: the EC50 was less than 0.1 µM.
Consider `CS(=O)(=O)c1ccc(-c2csc3c(OC4CCN(c5nc(-c6ccncc6)no5)CC4)ncnc23)c(F)c1` [Example 66, 5-(4-(7-(2-fluoro-4-methanesulfonyl-phenyl)thieno[3,2-d]pyrimidin-4-yloxy)piperidin-1-yl)-3-(pyridin-4-yl)-1,2,4-oxadiazole], for which the EC50 is less than 0.1 µM.
Take `CC(C)(C)OC(=O)N1CCC(Oc2ncnc3c(-c4ccc(S(C)(=O)=O)cc4)csc23)CC1` [Example 50, tert-butyl 4-(7-(4-methanesulfonyl-phenyl)thieno[3,2-d]pyrimidin-4-yloxy)piperidine-1-carboxylate]: the EC50 is less than 0.1 µM.

These data come from patent US8853213B2, “Bicyclic compound for modulating G protein-coupled receptors” (Hanmi Pharm. Co., Ltd, priority 2011, dated 2014).
